Values quoted from earlier work in patent US20260345512A1, “TRANSDERMAL DELIVERY OF DEXTROMETHORPHAN” (SHINKEI THERAPEUTICS, INC., priority 2022, published 2026).

Tests used:
[1] = dextromethorphan alone
[2] = without enhancer

COc1ccc2c(c1)[C@]13CCCC[C@@H]1[C@H](C2)N(C)CC3 [dextromethorphan]
adverse reactions reported with use of the individual component [1]: drowsiness, dizziness, nervousness or restlessness, nausea, vomiting, and stomach pain

C[C@]12CC[C@H]3[C@@H](CCC4=CC(=O)CC[C@@]43C)[C@@H]1CC[C@@H]2O [testosterone]
transdermal delivery rate relative to beta estradiol [2]: three orders of magnitude higher
